Laboratory results as given in US4262127A, “3-Alkoxy-2-alkylisothiazolium salts and their derivatives” (Givaudan Corporation, priority 1979, dated 1981).
Where two headings read alike, the source gives them in different places.

Test system: Pseudomonas aeruginosa
Assay: prevention of microbial growth in cutting oil emulsions (Kutwell 30)
Assay type: cell-based
Conditions: 3.3% cutting oil emulsion (Kutwell 30), 28° C., read-out: concentration required to prevent microbial growth
Experimental: In running these tests, two-fold serial dilutions of 6% solutions of the compound in dimethylformamide was added to 3.3% cutting oil emulsions. The emulsions were prepared by diluting with water a commercially available cutting oil concentrate. The emulsions were inoculated with a culture of Pseudomonas aeruginosa and incubated at 28° C. on a rotary shaker. At weekly intervals, the emulsions were examined for bacteria by conventional streakplate methods. The emulsions were then reinoculated with Pseudomonas aeruginosa and reincubated.

[1] = 168 h, incubation period 1 week
[2] = 336 h, incubation period 2 weeks, reinoculated weekly
[3] = 504 h, incubation period 3 weeks, reinoculated weekly
[4] = 672 h, incubation period 4 weeks, reinoculated weekly

MIC [1] [µg/mL]	MIC [2] [µg/mL]	MIC [3] [µg/mL]	MIC [4] [µg/mL]	SMILES
< 32	< 32	32	32	C=CCOc1ccs[n+]1C
32	64	64	64	COc1ccs[n+]1C
< 32	< 32	< 32	< 32	C[n+]1sccc1OCc1ccccc1
< 32	32	32	32	COc1c(Br)cs[n+]1C
